Laboratory results reported in PMC4685925, “Exploring architectures displaying multimeric presentations of a trihydroxypiperidine iminosugar” (Beilstein Journal of Organic Chemistry, 2015).

Biological target: T1, amyloglucosidase (Aspergillus niger, UniProt P69328)
T1 construct: gene GLAA
Assay: commercial glycosidase inhibition assay ([…] inhibition at […]; IC50 determined)
Type: biochemical

T1 sequence (P69328 25-640): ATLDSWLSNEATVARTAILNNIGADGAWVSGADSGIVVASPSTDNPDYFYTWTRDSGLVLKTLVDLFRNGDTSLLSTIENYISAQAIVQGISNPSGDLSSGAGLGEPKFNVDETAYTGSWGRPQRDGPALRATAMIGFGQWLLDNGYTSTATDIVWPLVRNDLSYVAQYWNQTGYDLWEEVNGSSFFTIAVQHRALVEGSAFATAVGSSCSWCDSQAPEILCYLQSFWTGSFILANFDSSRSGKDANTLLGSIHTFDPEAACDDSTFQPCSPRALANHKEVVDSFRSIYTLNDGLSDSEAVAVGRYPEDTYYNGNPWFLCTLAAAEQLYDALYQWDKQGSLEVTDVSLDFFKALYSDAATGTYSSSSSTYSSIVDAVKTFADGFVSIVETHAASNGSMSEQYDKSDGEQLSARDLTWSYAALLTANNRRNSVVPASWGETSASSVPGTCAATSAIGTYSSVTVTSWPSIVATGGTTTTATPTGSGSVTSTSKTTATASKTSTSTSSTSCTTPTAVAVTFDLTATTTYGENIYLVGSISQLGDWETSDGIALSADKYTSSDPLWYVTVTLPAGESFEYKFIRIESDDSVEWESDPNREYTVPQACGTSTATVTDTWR

NCc1cn(CCCN2C[C@@H](O)C(O)[C@H](O)C2)nn1 [compound 15, Deprotected monovalent iminosugar 15]
IC50: 1100 µM
